Measurements reported in patent US9765105B2, “Macrolide compound” (Pulike Biological Engineering, Inc., priority 2013, dated 2017).

Assays:
Test in all cases: in vitro susceptibility, MIC by mini broth dilution
Format in all cases: cell-based
[1] = system: Staphylococcus aureus CVCC26003; details: strain CVCC26003
Method: (§1) in vitro tests of susceptibility of the compounds according to the present disclosure against bacterial strains commonly used in laboratories. In accordance with the Performance Standards for Antimicrobial Disk Susceptibility Tests: Approved Standard published by the US National Committee for Clinical Laboratory Standards, the antibacterial activities of compounds prepared according to examples 5 to 187 were tested. The MICs (minimum inhibitory concentration) of the medicaments prepared according to the examples on the following bacterial strains were measured through mini broth dilution technique. Staphylococcus aureus CVCC26003, Streptococcus equines CVCC556. Actinobacillus pleuropneumoniae CVCC262, Haemophilus parasuis, and Pasteurella multocida CVCC399, which were purchased from the Control Institute of Veterinary Bioproducts and Pharmaceuticals, China. 4.1.1 Culture Medium for Staphylococcus aureus CVCC26003 Liquid culture medium: CAMHB. […] Solid culture medium: NINA prepared according to the specification of the final product. The strains were taken out of a refrigerator at −20° C. to be revived, and were spreaded by streaking on the solid culture medium with an inoculating loop. The inoculated culture medium was cultured at 35° C. in a constant temperature incubator for 20 h. […] were selected from a well-grown culture plate and streaked on the solid culture medium. The inoculated culture medium was cultured at 35° C. in the constant temperature incubator for 20 h. […] A 96-well plate was used, and 100 μl of DMSO was added into each of wells 2 to 11, and 200 μl of ready-prepared medicament solution was added into the 1st well, 100 μl of the medicament solution was extracted from the 1st well and added into the 2nd well. Double dilution was performed until the 11th well, thereby forming 11 gradients. In this case, compound of parent plate was prepared. 3 μl of double diluted medicament solution was extracted with a 12-channel pipettor and added into wells 1-11 of a new disposable 96-well culture plate. The 12th well thereof is a control well. For each medicament, there are two adjacent rows which are parallel. The transferred compound plate was reserved for later use. […] The dilution ratio was recorded, and the bacterial liquid for the tests was diluted according to the recorded dilution ratio. Subsequently, the bacterial suspension and the liquid culture medium were diluted in the proportion of 1:200. The diluted solution was reserved for later use.

[2] = system: Actinobacillus pleuropneumoniae CVCC262; details: strain CVCC262
Method: as §1, with “China. 4.1.2” for “China. 4.1.1”, “Culture Media” for “Culture Medium”, “for the Rest Four Bacterial Strains.” for “for Staphylococcus aureus CVCC26003”, “medium:” for “medium: CAMHB.”, “medium: […]” for “medium: NINA prepared according to the specification of the final product.”

Haemophilus parasuis = system: Haemophilus parasuis
Method: as §1, with “China. 4.1.2” for “China. 4.1.1”, “Culture Media” for “Culture Medium”, “for the Rest Four Bacterial Strains.” for “for Staphylococcus aureus CVCC26003”, “medium:” for “medium: CAMHB.”, “medium: […]” for “medium: NINA prepared according to the specification of the final product.”

[3] = system: Pasteurella multocida CVCC399; details: strain CVCC399
Method: as §1, with “China. 4.1.2” for “China. 4.1.1”, “Culture Media” for “Culture Medium”, “for the Rest Four Bacterial Strains.” for “for Staphylococcus aureus CVCC26003”, “medium:” for “medium: CAMHB.”, “medium: […]” for “medium: NINA prepared according to the specification of the final product.”

[4] = system: Streptococcus equines CVCC556; details: strain CVCC556
Method: as §1, with “China. 4.1.2” for “China. 4.1.1”, “Culture Media” for “Culture Medium”, “for the Rest Four Bacterial Strains.” for “for Staphylococcus aureus CVCC26003”, “medium:” for “medium: CAMHB.”, “medium: […]” for “medium: NINA prepared according to the specification of the final product.”

SMILES | MIC values, Staphylococcus aureus CVCC26003 [1] | MIC values, Actinobacillus pleuropneumoniae CVCC262 [2] | MIC values, Haemophilus parasuis (Haemophilus parasuis) | MIC values, Pasteurella multocida CVCC399 [3] | MIC values, Streptococcus equines CVCC556 [4]
CC[C@H]1OC(=O)[C@H](C)[C@@H](O[C@H]2C[C@@](C)(OC)[C@](O)(CNCCCC(=O)O)[C@H](C)O2)[C@H](C)[C@@H](O[C@@H]2O[C@H](C)C[C@H](N(C)C)[C@H]2O)[C@](C)(O)C[C@@H](C)NC[C@H](C)[C@@H](O)[C@]1(C)O [syzx-42, (2R,3S,4R,5S,8R,10R,11R,12S,13S,14R)-13-[(2,6-dideoxy-3-C-methyl-3-O-methyl-4-C-[[butyrate-4-amino]-methyl]-α-L-ribopyranosyl)oxy]-2-ethyl-3,4,10-trihydroxy-3,5,8,10,12,14-hexamethyl-11-[[3,4,6-trideoxy-3-(dimethylamino)-β-D-xylo-hexopyranosy]oxy]-1-oxa-7-azacyclopentadecan-15-one] | 2 ug/mi | 1 ug/mi | 1 ug/mi | 2 ug/mi | 1 ug/mi
CC[C@H]1OC(=O)[C@H](C)[C@@H](O[C@H]2C[C@@](C)(OC)[C@](O)(CNc3ccc(Cl)cc3C)[C@H](C)O2)[C@H](C)[C@@H](O[C@@H]2O[C@H](C)C[C@H](N(C)C)[C@H]2O)[C@](C)(O)C[C@@H](C)NC[C@H](C)[C@@H](O)[C@]1(C)O [syzx-97, (2R,3S,4R,5S,8R,10R,11R,12S,13S,14R)-13-[(2,6-dideoxy-3-C-methyl-3-O-methyl-4-C-[(2-methyl-4-chloro-phenyl-amino)-methyl]-α-L-ribopyranosyl)oxy]-2-ethyl-3,4,10-trihydroxy-3,5,8,10,12,14-hexamethyl-11-[[3,4,6-trideoxy-3-(dimethylamino)-β-D-xylo-hexopyranosy]oxy]-1-oxa-7-azacyclopentadecan-15-one] | 1 ug/mi | 128 ug/mi | 1 ug/mi | 4 ug/mi | 0.5 ug/mi
CC[C@H]1OC(=O)[C@H](C)[C@@H](O[C@H]2C[C@@](C)(OC)[C@](O)(CNc3ccccc3F)[C@H](C)O2)[C@H](C)[C@@H](O[C@@H]2O[C@H](C)C[C@H](N(C)C)[C@H]2O)[C@](C)(O)C[C@@H](C)NC[C@H](C)[C@@H](O)[C@]1(C)O [syzx-68, (2R,3S,4R,5S,8R,10R,11R,12S,13S,14R)-13-[(2,6-dideoxy-3-C-methyl-3-O-methyl-4-C-[(2-fluoro-phenyl-amino)-methyl]-α-L-ribopyranosyl)oxy]-2-ethyl-3,4,10-trihydroxy-3,5,8,10,12,14-hexamethyl-11-[[3,4,6-trideoxy-3-(dimethylamino)-β-D-xylo-hexopyranosy]oxy]-1-oxa-7-azacyclopentadecan-15-one] | ≦0.25 ug/mi | 8 ug/mi | ≦0.25 ug/mi | 8 ug/mi | ≦0.25 ug/mi
CCCN1C[C@H](C)[C@@H](O)[C@](C)(O)[C@@H](CC)OC(=O)[C@H](C)[C@@H](O[C@H]2C[C@@](C)(OC)[C@](O)(CNCC3(C)CC(N)CC(C)(C)C3)[C@H](C)O2)[C@H](C)[C@@H](O[C@@H]2O[C@H](C)C[C@H](N(C)C)[C@H]2O)[C@](C)(O)C[C@H]1C (stereo partly shown) [syzx-106] | 2 ug/mi | 0.5 ug/mi | 0.5 ug/mi | 2 ug/mi | 0.25 ug/mi
CC[C@H]1OC(=O)[C@H](C)[C@@H](O[C@H]2C[C@@](C)(OC)[C@](O)(CNCC3CCNCC3)[C@H](C)O2)[C@H](C)[C@@H](O[C@@H]2O[C@H](C)C[C@H](N(C)C)[C@H]2O)[C@](C)(O)C[C@@H](C)NC[C@H](C)[C@@H](O)[C@]1(C)O [syzx-93] | 32 ug/mi | 16 ug/mi | 8 ug/mi | 64 ug/mi | 1 ug/mi

The remaining lines, values ahead:

MIC values, Staphylococcus aureus CVCC26003 [1] | MIC values, Actinobacillus pleuropneumoniae CVCC262 [2] | MIC values, Haemophilus parasuis (Haemophilus parasuis) | MIC values, Pasteurella multocida CVCC399 [3] | MIC values, Streptococcus equines CVCC556 [4] | SMILES
1 ug/mi | 64 ug/mi | 0.5 ug/mi | 2 ug/mi | 0.5 ug/mi | CCCN1CC(C)C(O)C(C)(O)C(CC)OC(=O)C(C)C(OC2CC(C)(OC)C(O)(CNC(CO)CO)C(C)O2)C(C)C(OC2OC(C)CC(N(C)C)C2O)C(C)(O)CC1C (stereo not shown) [syzx-145]
2 ug/mi | 4 ug/mi | 4 ug/mi | 8 ug/mi | 0.5 ug/mi | CCCN1C[C@H](C)[C@@H](O)[C@](C)(O)[C@@H](CC)OC(=O)[C@H](C)[C@@H](O[C@H]2C[C@@](C)(OC)[C@](O)(CNC(=O)c3ccccc3)[C@H](C)O2)[C@H](C)[C@@H](O[C@@H]2O[C@H](C)C[C@H](N(C)C)[C@H]2O)[C@](C)(O)C[C@H]1C [syzx-219]
4 ug/mi | 2 ug/mi | 2 ug/mi | 8 ug/mi | 0.25 ug/mi | CCCN1C[C@H](C)[C@@H](O)[C@](C)(O)[C@@H](CC)OC(=O)[C@H](C)[C@@H](O[C@H]2C[C@@](C)(OC)[C@](O)(CNc3nc(OC)cc(OC)n3)[C@H](C)O2)[C@H](C)[C@@H](O[C@@H]2O[C@H](C)C[C@H](N(C)C)[C@H]2O)[C@](C)(O)C[C@H]1C [syzx-222]
2 ug/mi | 4 ug/mi | 4 ug/mi | 2 ug/mi | 0.25 ug/mi | CCCN1C[C@H](C)[C@@H](O)[C@](C)(O)[C@@H](CC)OC(=O)[C@H](C)[C@@H](O[C@H]2C[C@@](C)(OC)[C@](O)(CNCCOC)[C@H](C)O2)[C@H](C)[C@@H](O[C@@H]2O[C@H](C)C[C@H](N(C)C)[C@H]2O)[C@](C)(O)C[C@H]1C [syzx-158]
2 ug/mi | 0.5 ug/mi | 0.5 ug/mi | 4 ug/mi | 0.25 ug/mi | CCCN1CC(C)C(O)C(C)(O)C(CC)OC(=O)C(C)C(OC2CC(C)(OC)C(O)(CNc3n[nH]c(S)n3)C(C)O2)C(C)C(OC2OC(C)CC(N(C)C)C2O)C(C)(O)CC1C (stereo not shown) [syzx-210]
0.25 ug/mi | 0.25 ug/mi | 0.25 ug/mi | 0.25 ug/mi | 0.25 ug/mi | CCCN1C[C@H](C)[C@@H](O)[C@](C)(O)[C@@H](CC)OC(=O)[C@H](C)[C@@H](O[C@H]2C[C@@](C)(OC)[C@](O)(CNCc3ccc(OC)cc3)[C@H](C)O2)[C@H](C)[C@@H](O[C@@H]2O[C@H](C)C[C@H](N(C)C)[C@H]2O)[C@](C)(O)C[C@H]1C [syzx-118]
